{"source": "the Kinase Knowledgebase extract (Sharma et al. 2016)", "data": [{"target": "PIK3CD (Human) (UniProt O00329)", "sequence (O00329 whole entry, looked up)": "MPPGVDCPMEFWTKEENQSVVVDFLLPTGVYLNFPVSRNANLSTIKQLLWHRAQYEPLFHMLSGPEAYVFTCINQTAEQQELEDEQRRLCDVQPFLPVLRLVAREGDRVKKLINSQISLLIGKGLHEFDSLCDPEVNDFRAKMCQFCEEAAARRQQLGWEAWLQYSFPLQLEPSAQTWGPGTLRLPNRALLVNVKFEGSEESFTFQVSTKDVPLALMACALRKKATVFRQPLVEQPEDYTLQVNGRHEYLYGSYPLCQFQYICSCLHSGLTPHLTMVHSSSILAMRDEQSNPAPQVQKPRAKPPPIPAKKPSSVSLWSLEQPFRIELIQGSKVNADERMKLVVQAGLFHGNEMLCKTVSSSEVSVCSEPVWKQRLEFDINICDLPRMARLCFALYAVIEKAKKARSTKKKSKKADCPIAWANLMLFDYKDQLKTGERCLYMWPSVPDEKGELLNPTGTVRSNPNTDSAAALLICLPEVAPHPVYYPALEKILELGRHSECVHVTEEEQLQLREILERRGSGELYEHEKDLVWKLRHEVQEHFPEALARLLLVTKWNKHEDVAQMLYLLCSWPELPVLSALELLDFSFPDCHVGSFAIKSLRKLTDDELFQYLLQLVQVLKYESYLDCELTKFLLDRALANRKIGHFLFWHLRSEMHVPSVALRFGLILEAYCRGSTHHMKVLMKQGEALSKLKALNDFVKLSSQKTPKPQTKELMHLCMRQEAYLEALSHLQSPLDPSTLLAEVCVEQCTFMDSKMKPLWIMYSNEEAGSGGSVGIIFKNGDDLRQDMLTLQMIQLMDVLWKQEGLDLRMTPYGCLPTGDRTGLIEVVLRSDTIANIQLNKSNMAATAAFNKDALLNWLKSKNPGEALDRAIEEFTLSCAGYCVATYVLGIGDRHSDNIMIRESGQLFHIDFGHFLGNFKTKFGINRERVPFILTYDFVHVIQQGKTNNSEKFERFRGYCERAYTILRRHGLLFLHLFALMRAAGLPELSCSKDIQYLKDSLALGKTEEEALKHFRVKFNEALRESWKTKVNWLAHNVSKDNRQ", "test": "Assessment of PIK3CD Kinase Activity (Scintillation Proximity Assay)", "units": {"IC50": "nM"}, "values": [{"smiles": "COc1c(C(C)n2nc(C(F)F)c3c(N)ncnc32)cc(Cl)c(C)c1-c1ccc(C(=O)N(C)C)nc1", "note": "(stereo not drawn)", "IC50": "≤ 10"}, {"smiles": "COc1c(C(C)n2cc(C)c3c(N)ncnc32)cc(Cl)c(C)c1-c1ccc(C(=O)N(C)C)nc1", "note": "(stereo not drawn)", "IC50": "≤ 10"}, {"smiles": "CCOc1c(C(C)n2nc(-c3cncc(C(=O)N(C)C)c3)c3c(N)ncnc32)cc(Cl)c(C)c1-c1ccc(C(=O)N(C)C)nc1", "note": "(stereo not drawn)", "IC50": "≤ 10"}, {"smiles": "COc1c(C(C)n2nc(C)c3c(N)ncnc32)cc(Cl)c(C)c1C1CN(C2CCOCC2)C1", "note": "(stereo not drawn)", "IC50": "≤ 10"}, {"smiles": "COc1c(C(C)n2nc(C)c3c(N)ncnc32)cc(Cl)c(C)c1C1CN(C[C@H](C)O)C1", "note": "(stereo partly drawn)", "IC50": "≤ 10"}, {"smiles": "COc1c(C(C)n2ccc(=O)c3c(N)ncnc32)cc(Cl)c(C)c1-c1cccc(C(=O)N(C)C)c1", "note": "(stereo not drawn)", "IC50": "≤ 10"}, {"smiles": "COc1c(C(C)n2nc(C)c3c(N)ncnc32)cc(Cl)c(Cl)c1C1CN(C[C@@H](C)O)C1", "note": "(stereo partly drawn)", "IC50": "≤ 10"}, {"smiles": "COc1c(C(C)n2nc(C)c3c(N)ncnc32)cc(Cl)c(C)c1-c1cncc(C(=O)N(C)CCN)c1", "note": "(stereo not drawn)", "IC50": "≤ 10"}, {"smiles": "COc1c(C(C)n2nc(C)c3c(N)ncnc32)cc(Cl)c(C)c1C1CN([C@H](C)CO)C1", "note": "(stereo partly drawn)", "IC50": "≤ 10"}, {"smiles": "COc1c(C(C)n2nc(C)c3c(N)ncnc32)cc(Cl)c(C)c1C1CC1", "note": "(stereo not drawn)", "IC50": "10 to 50"}, {"smiles": "COc1c(C(C)n2nc(C)c3c(N)ncnc32)cc(Cl)c(C)c1-c1cnn(CC(=O)N(C)C)c1", "note": "(stereo not drawn)", "IC50": "≤ 10"}, {"smiles": "COc1c(C(C)n2cc(-c3cn[nH]c3)c(=O)c3c(N)ncnc32)cc(Cl)c(C)c1-c1ccc(C(=O)N(C)C)nc1", "note": "(stereo not drawn)", "IC50": "≤ 10"}, {"smiles": "CCOc1c(C(C)n2nc(C)c3c(N)ncnc32)cc(C)c(C#N)c1C1CN(CC(C)(C)O)C1", "note": "(stereo not drawn)", "IC50": "≤ 10"}, {"smiles": "COc1c(C(C)n2nc(C)c3c(N)ncnc32)cc(Cl)c(C)c1C1CN(C[C@@H](C)O)C1", "note": "(stereo partly drawn)", "IC50": "≤ 10"}, {"smiles": "CCOc1c(C(C)n2nc(CC#N)c3c(N)ncnc32)cc(Cl)c(C)c1-c1ccc(C(=O)N(C)C)nc1", "note": "(stereo not drawn)", "IC50": "≤ 10"}, {"smiles": "COc1c(C(C)n2nc(C)c3c(N)ncnc32)cc(Cl)c(C)c1-c1ccc(C(=O)N(C)C)nc1", "note": "(stereo not drawn)", "IC50": "≤ 10"}, {"smiles": "COc1c(C(C)n2nc(C)c3c(N)ncnc32)cc(C#N)c(C)c1-c1cnn(C)c1", "note": "(stereo not drawn)", "IC50": "10 to 50"}]}, {"target": "PIK3CD (Human) (UniProt O00329)", "test": "not given", "units": {"IC50": "nM"}, "values": [{"smiles": "COc1c([C@@H](C)n2nc(C)c3c(N)ncnc32)cc(Cl)c(C#N)c1C1CN(C[C@@H](C)O)C1", "IC50": "50 to 200"}]}]}
